assay: In vitro thromboxane A2 antagonistic activity on aggregation of rabbit platelets induced by U-46,619 (4 uM)

`O=C(O)c1ccc2c(c1)CC(CCNS(=O)(=O)c1ccc(Cl)cc1)C2` (stereo unspecified) [Sodium; 2-[2-(4-chloro-benzenesulfonylamino)-ethyl]-indan-5-carboxylate] and `O=C(O)c1ccc2c(c1)CC(CCCNS(=O)(=O)c1ccc(Cl)cc1)C2` (stereo unspecified) [Sodium; 2-[3-(4-chloro-benzenesulfonylamino)-propyl]-indan-5-carboxylate] are within 1.5-fold of each other in IC50: 7.76 µM for the first, 6.6 µM for the second.

Compared with `O=C(O)c1ccc2c(c1)CC(CCCCNS(=O)(=O)c1ccc(Cl)cc1)C2` (stereo unspecified) [Sodium; 2-[4-(4-chloro-benzenesulfonylamino)-butyl]-indan-5-carboxylate], `O=C(O)Cc1ccc2c(c1)CC(CCCCNS(=O)(=O)c1ccc(Cl)cc1)C2` (stereo unspecified) [Sodium; {2-[4-(4-chloro-benzenesulfonylamino)-butyl]-indan-5-yl}-acetate] is higher in IC50: 100 µM for the first, > 100 µM for the second. The first is the more potent here.

First: O=C(O)c1ccc2c(c1)CC(CNS(=O)(=O)c1ccc(Cl)cc1)C2 (stereo unspecified) [Sodium; 2-[(4-chloro-benzenesulfonylamino)-methyl]-indan-5-carboxylate]
Second: O=C(O)Cc1ccc2c(c1)CC(CNS(=O)(=O)c1ccc(Cl)cc1)C2 (stereo unspecified) [Sodium; {2-[(4-chloro-benzenesulfonylamino)-methyl]-indan-5-yl}-acetate]
The IC50 of the first is 3.7-fold higher: 1.32 µM for the first, 0.36 µM for the second.

Going from `O=C(O)CCc1ccc2c(c1)CC(CNS(=O)(=O)c1ccc(Cl)cc1)C2` (stereo unspecified) [Sodium; 3-{2-[(4-chloro-benzenesulfonylamino)-methyl]-indan-5-yl}-propionate] to `O=C(O)CCCc1ccc2c(c1)CC(CNS(=O)(=O)c1ccc(Cl)cc1)C2` (stereo unspecified) [Sodium; 4-{2-[(4-chloro-benzenesulfonylamino)-methyl]-indan-5-yl}-butyrate], the IC50 rises from 0.16 µM to 1.34 µM (8.4-fold).

First: O=C(O)CCCCc1ccc2c(c1)CC(CNS(=O)(=O)c1ccc(Cl)cc1)C2 (stereo unspecified) [Sodium; 5-{2-[(4-chloro-benzenesulfonylamino)-methyl]-indan-5-yl}-pentanoate]
Second: O=C(O)Cc1ccc2c(c1)CC(CCCNS(=O)(=O)c1ccc(Cl)cc1)C2 (stereo unspecified) [Sodium; {2-[3-(4-chloro-benzenesulfonylamino)-propyl]-indan-5-yl}-acetate]
The IC50 of the first is 25-fold lower: 2.88 µM for the first, 72.3 µM for the second.

Compared with `O=C(O)Cc1ccc2c(c1)CC(NS(=O)(=O)c1ccc(Cl)cc1)C2` (stereo unspecified) [Sodium; [2-(4-chloro-benzenesulfonylamino)-indan-5-yl]-acetate], `O=C(O)Cc1ccc2c(c1)CC(CCNS(=O)(=O)c1ccc(Cl)cc1)C2` (stereo unspecified) [Sodium; {2-[2-(4-chloro-benzenesulfonylamino)-ethyl]-indan-5-yl}-acetate] is 4.1-fold higher in IC50: 0.36 µM for the first, 1.48 µM for the second.

Compared with `O=C(O)Cc1ccc2c(c1)CC(CNS(=O)(=O)c1ccccc1)C2` (stereo unspecified) [Sodium; [2-(benzenesulfonylamino-methyl)-indan-5-yl]-acetate], `O=C(O)Cc1ccc2c(c1)CC(CNS(=O)(=O)Cc1ccccc1)C2` (stereo unspecified) [Sodium; [2-(phenylmethanesulfonylamino-methyl)-indan-5-yl]-acetate] is higher in IC50: 1.02 µM for the first, > 100 µM for the second. The first is the more potent here.

Going from `O=C(O)Cc1ccc2c(c1)CC(CNS(=O)(=O)C1CCCCC1)C2` (stereo unspecified) [Sodium; [2-(cyclohexanesulfonylamino-methyl)-indan-5-yl]-acetate] to `CCCCCS(=O)(=O)NCC1Cc2ccc(CC(=O)O)cc2C1` (stereo unspecified) [Sodium; {2-[(pentane-1-sulfonylamino)-methyl]-indan-5-yl}-acetate], the IC50 rises from 17.8 µM to 77.6 µM (4.4-fold). The first is the more potent here.

Going from `O=C(O)Cc1ccc2c(c1)CC(CNS(=O)(=O)c1ccc(Cl)cc1)O2` (stereo unspecified) [Sodium; {2-[(4-chloro-benzenesulfonylamino)-methyl]-2,3-dihydro-benzofuran-5-yl}-acetate] to `O=C(O)Cc1ccc2c(c1)CC(CNS(=O)(=O)c1ccc3ccccc3c1)C2` (stereo unspecified) [Sodium; {2-[(naphthalene-2-sulfonylamino)-methyl]-indan-5-yl}-acetate], the IC50 rises from 0.32 µM to 0.95 µM (3-fold). The first is the more potent here.

Going from `O=C(O)Cc1ccc2c(c1)CC(CNS(=O)(=O)c1cccc3ccccc13)C2` (stereo unspecified) [Sodium; {2-[(naphthalene-1-sulfonylamino)-methyl]-indan-5-yl}-acetate] to `O=C(O)Cc1ccc2c(c1)CC(CNS(=O)(=O)c1cccs1)C2` (stereo unspecified) [Sodium; {2-[(thiophene-2-sulfonylamino)-methyl]-indan-5-yl}-acetate], the IC50 falls from 47.9 µM to 2.81 µM (17-fold).

In the case of `O=C(O)Cc1ccc2c(c1)CC(CNS(=O)(=O)c1cccnc1)C2` (stereo unspecified) [Sodium; {2-[(pyridine-3-sulfonylamino)-methyl]-indan-5-yl}-acetate], the IC50 is reported as > 100 µM.
